According to patent US8247610B2, “Amine linked modulators of γ-secretase” (Janssen Pharmaceutica N.V., priority 2007, dated 2012):

These compounds were tested against T1, γ-secretase (Homo sapiens, UniProt P49768) (assay: Screening for γ-secretase-modulating activity in SKNBE2 cells carrying the APP 695 wild type). Details: 0.3 μM; SKNBE2 cells carrying APP 695 wild type.
T1 construct: endogenous in cells; host or cells: SKNBE2 cells carrying APP 695 wild type
Format: cell-based
Method: Screening of the Compounds of the Invention for γ-Secretase-Modulating Activity
Screening was carried out using SKNBE2 cells carrying the APP 695—wild type, grown in DMEM/NUT-mix F12 (HAM) provided by Gibco (cat no. 31330-38) containing 5% Serum/Fe supplemented with 1% non-essential amino acids.
Cells were grown to near confluency.
The screening was performed using the assay as described in Citron et al (1997) Nature Medicine 3: 67.

SMILES	inhibition at 0.3 µM
CC(C)C[C@@H](C(=O)O)c1cc(NCc2cc(C(F)(F)F)cc(C(F)(F)F)c2)cc(-c2ccc(C(F)(F)F)cc2)c1 [Compound 46, (R) 2-[5-(3,5-Bis-trifluoromethyl-benzylamino)-4′-trifluoromethyl-biphenyl-3-yl]-4-methyl-pentanoic acid]	6%
CC(C)CC(C(=O)O)c1cc(-c2ccc(C(F)(F)F)cc2)cc(N(C)c2ccc(F)cc2C(F)(F)F)c1 (stereo not drawn) [Example 11, 2-{5-[(4-Fluoro-2-trifluoromethyl-phenyl)-methyl-amino]-4′-trifluoromethyl-biphenyl-3-yl}-4-methyl-pentanoic acid]	23%
CC(C)CC(C(=O)O)c1cc(-c2ccc(C(F)(F)F)cc2)cc(N2CCc3ccccc32)c1 (stereo not drawn) [Example 24, 2-[5-(2,3-Dihydro-indol-1-yl)-4′-trifluoromethyl-biphenyl-3-yl]-4-methyl-pentanoic acid]	0%
CC(C)C[C@@H](C(=O)O)c1cc(NCc2ccc(C(F)(F)F)cc2)cc(-c2ccc(C(F)(F)F)cc2)c1 [Compound 44, (R) 4-Methyl-2-[4′-trifluoromethyl-5-(4-trifluoromethyl-benzylamino)-biphenyl-3-yl]-pentanoic acid]	7%
CC(C)C[C@@H](C(=O)O)c1cc(NCc2cc(F)cc(F)c2)cc(-c2ccc(C(F)(F)F)cc2)c1 [Compound 43, (R) 2-[5-(3,5-Difluoro-benzylamino)-4′-trifluoromethyl-biphenyl-3-yl]-4-methyl-pentanoic acid]	0%
CC(C)C[C@@H](C(=O)O)c1cc(NCc2ccc(C#N)cc2)cc(-c2ccc(C(F)(F)F)cc2)c1 [Compound 47, (R) 2-[5-(4-Cyano-benzylamino)-4′-trifluoromethyl-biphenyl-3-yl]-4-methyl-pentanoic acid]	0%
CC(C)CC(C(=O)O)c1cc(-c2ccc(C(F)(F)F)cc2)cc(N2CCCc3ccccc32)c1 (stereo not drawn) [Compound 28, 2-[5-(3,4-Dihydro-2H-quinolin-1-yl)-4′-trifluoromethyl-biphenyl-3-yl]-4-methyl-pentanoic acid]	0%
CC(C)CCC(Nc1cc(CC(=O)O)cc(-c2ccc(C(F)(F)F)cc2)c1)c1ccc(C(F)(F)F)cc1 (stereo not drawn) [Compound 32]	25%
CC(C)CC(C(=O)O)c1cc(-c2ccc(C(F)(F)F)cc2)cc(N(C)c2ccc(C(F)(F)F)cc2)c1 (stereo not drawn) [Example 19, 4-Methyl-2-{5-[methyl-(4-trifluoromethyl-phenyl)-amino]-4′-trifluoromethyl-biphenyl-3-yl}-pentanoic acid]	22%

Same assay, conditions: SKNBE2 cells carrying APP 695 wild type

EC50	SMILES
190 nM	CC(C)CC(C(=O)O)c1cc(-c2ccc(C(F)(F)F)cc2)cc(N(C)c2cc(C(F)(F)F)cc(C(F)(F)F)c2)c1 (stereo not drawn) [Example 10, 2-{5-[(3,5-Bis-trifluoromethyl-phenyl)-methyl-amino]-4′-trifluoromethyl-biphenyl-3-yl}-4-methyl-pentanoic acid]
300 nM	CC(C)CCN(Cc1cc(-c2ccc(C(F)(F)F)cc2)cc(C(CC(C)C)C(=O)O)c1)Cc1ccc(F)cc1C(F)(F)F (stereo not drawn) [Compound 60, 2-(5-{[(4-Fluoro-2-trifluoromethyl-benzyl)-(3-methyl-butyl)-amino]-methyl}-4′-trifluoromethyl-biphenyl-3-yl)-4-methyl-pentanoic acid]
220 nM	CC(C)CCN(Cc1cc(C(F)(F)F)cc(C(F)(F)F)c1)c1cc(-c2ccc(C(F)(F)F)cc2)cc([C@@H](CC(C)C)C(=O)O)c1 [Compound 49, (R) 2-{5-[(3,5-Bis-trifluoromethyl-benzyl)-(3-methyl-butyl)-amino]-4′-trifluoromethyl-biphenyl-3-yl}-4-methyl-pentanoic acid]
580 nM	CC(C)CCN(Cc1ccc(C(C)(C)C)cc1)c1cc(-c2ccc(C(F)(F)F)cc2)cc(C(CC(C)C)C(=O)O)c1 (stereo not drawn) [Compound 39, 2-{5-[(4-tert-Butyl-benzyl)-(3-methyl-butyl)-amino]-4′-trifluoromethyl-biphenyl-3-yl}-4-methyl-pentanoic acid]
390 nM	CC(C)CCN(Cc1cc(-c2ccc(C(F)(F)F)cc2)cc(C(CC(C)C)C(=O)O)c1)Cc1cccc(C(F)(F)F)c1 (stereo not drawn) [Compound 61, 4-Methyl-2-(5-{[(3-methyl-butyl)-(3-trifluoromethyl-benzyl)-amino]-methyl}-4′-trifluoromethyl-biphenyl-3-yl)-pentanoic acid]
220 nM	CC(C)CCN(Cc1ccc(C(F)(F)F)cc1)Cc1cc(-c2ccc(C(F)(F)F)cc2)cc(C(CC(C)C)C(=O)O)c1 (stereo not drawn) [Compound 56, 4-Methyl-2-(5-{[(3-methyl-butyl)-(4-trifluoromethyl-benzyl)-amino]-methyl}-4′-trifluoromethyl-biphenyl-3-yl)-pentanoic acid]
270 nM	CC(C)CCN(Cc1cc(-c2ccc(C(F)(F)F)cc2)cc(C(CC(C)C)C(=O)O)c1)Cc1cc(F)c(F)c(F)c1 (stereo not drawn) [Compound 54, 4-Methyl-2-(5-{[(3-methyl-butyl)-(3,4,5-trifluoro-benzyl)-amino]-methyl}-4′-trifluoromethyl-biphenyl-3-yl)-pentanoic acid]
220 nM	CC(C)CCC(Nc1cc(-c2ccc(C(F)(F)F)cc2)cc(C(CC(C)C)C(=O)O)c1)c1cc(C(F)(F)F)cc(C(F)(F)F)c1 (stereo not drawn) [Compound 30, 2-{5-[1-(3,5-Bis-trifluoromethyl-phenyl)-4-methyl-pentylamino]-4′-trifluoromethyl-biphenyl-3-yl}-4-methyl-pentanoic acid]
480 nM	CC(C)CC(C(=O)O)c1cc(-c2ccc(Cl)c(C(F)(F)F)c2)cc(N(C)c2cc(C(F)(F)F)cc(C(F)(F)F)c2)c1 (stereo not drawn) [Compound 27, 2-[4′-Chloro-5-(N-[3,5-bis-(trifluoromethyl)phenyl]-N-methylamino)-3′-trifluoromethyl-biphenyl-3-yl]-4-methyl-pentanoic acid]
240 nM	CC(C)CCN(Cc1cc(F)cc(F)c1)Cc1cc(-c2ccc(C(F)(F)F)cc2)cc(C(CC(C)C)C(=O)O)c1 (stereo not drawn) [Compound 59, 2-(5-{[(3,5-Difluoro-benzyl)-(3-methyl-butyl)-amino]-methyl}-4′-trifluoromethyl-biphenyl-3-yl)-4-methyl-pentanoic acid]
65 nM	CC(C)CCN(Cc1cc(-c2ccc(C(F)(F)F)cc2)cc([C@@H](CC(C)C)C(=O)O)c1)Cc1ccc(F)c(F)c1 (stereo in doubt) [Example 5, 2-(5-{[(3,4-Difluoro-benzyl)-(3-methyl-butyl)-amino]-methyl}-4′-trifluoromethyl-biphenyl-3-yl)-4-methyl-pentanoic acid]

More lines, now with the values behind:

SMILES	EC50
CC(C)CC(C(=O)O)c1cc(-c2ccc(C(F)(F)F)cc2)cc(N2CCCc3ccc(C(F)(F)F)cc32)c1 (stereo not drawn) [Compound 26, 4-Methyl-2-[4′-trifluoromethyl-5-(7-trifluoromethyl-3,4-dihydro-2H-quinolin-1-yl)-biphenyl-3-yl]-pentanoic acid]	360 nM
CC(C)CCC(Nc1cc(-c2ccc(C(F)(F)F)cc2)cc(C(CC(C)C)C(=O)O)c1)c1cc(F)c(F)c(F)c1 (stereo not drawn) [Compound 38, 4-Methyl-2-{5-[4-methyl-1-(3,4,5-trifluoro-phenyl)-pentylamino]-4′-trifluoromethyl-biphenyl-3-yl}-pentanoic acid]	230 nM
CC(C)CC(C(=O)O)c1cc(-c2ccc(C(F)(F)F)cc2)cc(N(C)c2cccc(C(F)(F)F)c2)c1 (stereo not drawn) [Example 2, 4-Methyl-2-{5-[methyl-(3-trifluoromethyl-phenyl)-amino]-4′-trifluoromethyl-biphenyl-3-yl}-pentanoic acid]	220 nM
CC(C)CCC(Nc1cc(-c2ccc(C(F)(F)F)cc2)cc(C(CC(C)C)C(=O)O)c1)c1ccc(C(F)(F)F)cc1 (stereo not drawn) [Compound 31, 4-Methyl-2-{5-[4-methyl-1-(4-trifluoromethyl-phenyl)-pentylamino]-4′-trifluoromethyl-biphenyl-3-yl}-pentanoic acid]	270 nM
CC(C)CCN(Cc1ccc(F)cc1)Cc1cc(-c2ccc(C(F)(F)F)cc2)cc(C(CC(C)C)C(=O)O)c1 (stereo not drawn) [Compound 62, 2-(5-{[(4-Fluoro-benzyl)-(3-methyl-butyl)-amino]-methyl}-4′-trifluoromethyl-biphenyl-3-yl)-4-methyl-pentanoic acid]	130 nM
CC(C)CC(C(=O)O)c1cc(NCc2ccc(F)cc2C(F)(F)F)cc(-c2ccc(C(F)(F)F)cc2)c1 (stereo not drawn) [Compound 51, 2-(5-(4-fluoro-2-(trifluoromethyl)benzylamino)-4′-(trifluoromethyl)biphenyl-3-yl)-4-methylpentanoic acid]	640 nM
CC(C)CC(C(=O)O)c1cc(-c2ccc(C(F)(F)F)cc2)cc(N(C)c2ccc(Cl)c(C(F)(F)F)c2)c1 (stereo not drawn) [Example 9, 2-{5-[(4-Chloro-3-trifluoromethyl-phenyl)-methyl-amino]-4′-trifluoromethyl-biphenyl-3-yl}-4-methyl-pentanoic acid]	330 nM
CC(C)CCC(Nc1cc(-c2ccc(C(F)(F)F)cc2)cc(C(CC(C)C)C(=O)O)c1)c1cc(F)cc(F)c1 (stereo not drawn) [Compound 29, 2-{5-[1-(3,5-Difluoro-phenyl)-4-methyl-pentylamino]-4′-trifluoromethyl-biphenyl-3-yl}-4-methyl-pentanoic acid]	300 nM

Same assay, conditions: concentration not given; SKNBE2 cells carrying APP 695 wild type

SMILES	% printed in the EC50 column, no concentration given
CC(C)CC(C(=O)O)c1cc(-c2ccc(C(F)(F)F)cc2)cc(N(C)c2ccc(C(C)C)cc2)c1 (stereo not drawn) [Example 7, 2-{5-[(4-Isopropyl-phenyl)-methyl-amino]-4′-trifluoromethyl-biphenyl-3-yl}-4-methyl-pentanoic acid]	8%
CC(C)CC(C(=O)O)c1cc(-c2ccc(C(F)(F)F)cc2)cc(N(C)c2ccc(C#N)cc2)c1 (stereo not drawn) [Example 8, 2-{5-[(4-Cyano-phenyl)-methyl-amino]-4′-trifluoromethyl-biphenyl-3-yl}-4-methyl-pentanoic acid]	−0%
